This passage reports IC50 results from patent US20260109714A1, “PYRIMIDINE-FUSED RING COMPOUND, AND PREPARATION METHOD THEREFOR AND USE THEREOF” (GENFLEET THERAPEUTICS (SHANGHAI) INC., priority 2022, published 2026).

The subject of one test is AGS p-ERK. In words: Cell assay for p-ERK (HTRF, Advance ERK phospho-T202/Y204 kit). The format is cell-based, human. To be noted: AGS cells (KRAS G12D), 3 hrs with compound, inhibition of p-ERK level. Here is the method:
AGS was purchased from ATCC, Article No.: CRL-1739; F12K was purchased from Gibco, Article No.: 21127-022; FBS was purchased from Gibco, Article No.: 10099-141C; the trypsin (containing EDTA) was purchased from Gibco, Article No.: 25200-072; DMSO was purchased from VWRAMRESCO, Article No.: 0231-500ML; the 96-well cell culture plate was purchased from Corning, Article No.: 3599; the white-bottom opaque 96-well plate was purchased from Cisbio, Article No.: 66PL96025; Advance ERK phospho-T202/Y204 kit was purchased from Cisbio, Article No.: 64AERPEH; the cell counter was purchased from CHEMOMETEC, model: NC-200; the microplate reader was purchased from PerkinElmer, model: Envison.
AGS, an endogenous human gastric adenocarcinoma cell line with KRAS^G12D mutation, was cultured in F12K+10% FBS medium. On the first day of the experiment, cells in logarithmic growth period were digested with trypsin (containing EDTA), collected and counted, and about 20,000 cells/well were inoculated in a 96-well cell culture plate and cultured overnight in an incubator with 5% CO2. 1000× compound stock solutions with gradient concentrations of 3.16 times were prepared with DMSO, and 200-fold diluted to 5× compound stock solutions with the above culture medium. The 5× compound stock solution was added to each cell culture well on the second day after cell inoculation, to give a final concentration of 1× and DMSO content of 0.1%. DMSO was used as experimental control. After adding the compound, the cells were continuously cultured for 3 hrs. Then, the culture medium in the well was removed, and 50 μl/well of cell lysis buffer (from Advanced ERK phospho-T202/Y204 kit, the same hereinafter) was added, and mixed uniformly. The cells were cultured for 30 min. Then 16 μl of the mixture was transferred to a white-bottom opaque 96-well plate, and 16 μl of the cell lysis buffer was added to an additional well and used as a blank. After that, 4 μl of p-ERK HTRF antibody mixed solution (from Advanced ERK Phos Pho-T202/Y204 Kit) was added to each well. After incubation for 4 hrs, the fluorescence value (RLU) of HTRF was read on a microplate reader. The inhibition rate of the compound on p-ERK level was calculated by the formula IR (%)=(RLU of control−RLU of compound)/(RLU of control−RLU of blank)×100%. The compound concentration and the corresponding inhibition rate on p-ERK level in the cells were fitted by using Prism 8 four-parameter method, and the IC50 value was calculated.
A general note: Time-resolved FRET reads energy transfer from a long-lived donor to a nearby acceptor.

The subject of test [1] is AsPC-1 human pancreatic cancer cell with KRAS G12D mutation. In words: Cell proliferation inhibition experiment, 3D CellTiter-Glo, AsPC-1. The format is cell-based. To be noted: AsPC-1 cells, 3D spheroid, 5 days. From the text:
(§1) AsPC-1 was purchased from ATCC, Article No.: CRL-1682; AGS was purchased from ATCC, Article No.: CRL-1739; RPMI1640 was purchased from Gibco, Article No.: 11875-093 2235123; F12K was purchased from Gibco, Article No.: 21127-022; FBS was purchased from Gibco, Article No.: 10099-141C; the trypsin (containing EDTA) was purchased from Gibco, Article No.: 25200-072; CellTiter Glo-3D was purchased from Progema, Article No.: G9683; the 384-well spheroid plate was purchased from Corning, Article No.: 3830; the white-bottom opaque 384-well plate was purchased from Corning, Article No.: 3570; the cell counter was purchased from CHEMOMETEC, model: NC-200; the microplate reader was purchased from PerkinElmer, model: Envison;
(§2) AsPC-1, an endogenous human pancreatic cancer cell AsPC-1 with KRAS^G12D mutation, was cultured in RPMI-1640 medium containing 10% FBS. AGS, a human gastric cancer cell line with KRAS^G12D mutation, was cultured in F-12K medium containing 10% FBS. Cells in logarithmic growth period were digested with trypsin (containing EDTA), collected and counted. 800 AsPC-1 cells/well or 400 […] were inoculated in a 384-well spheroid plate, and cultured overnight in an incubator with 5% CO2 to establish a 3D cell model. 1000× compound stock solutions with gradient concentrations of 3.16 times were prepared with DMSO, and 100-fold diluted to 10× compound stock solutions with the culture medium. The 10× compound stock solution was added to each cell culture well on the second day after cell inoculation, to give a final concentration of 1× and DMSO content of 0.1%. DMSO was used as the control, and the culture medium was used as the blank. After the compound was added, the cells were cultured for 5 days. 30 μl CellTiter-Glo working solution was added to each well, and mixed uniformly. The cells were incubated for 30 min, and allowed to stand at room temperature for 30 min. 40 μl of the mixture was transferred to a white-bottom opaque 384-well plate, and the luminescence was read on a microplate reader. The inhibition rate on cell proliferation was calculated by a formula: IR (%)=(RLU of control−RLU of compound)/(RLU of control−RLU of blank)×100%. The gradient concentrations of the compound and the corresponding inhibition rates were fitted by using XLFit four-parameter method, and the IC50 value was calculated. […] The results of some exemplary compounds are shown in Table 2 below (—means not tested).

The subject of test [2] is AGS human gastric cancer cell line with KRAS G12D mutation. In words: Cell proliferation inhibition experiment, 3D CellTiter-Glo, AGS. Format: cell-based. To be noted: AGS cells, 3D spheroid, 5 days.
Text: as §1, §2
Background: Cellular ATP, detected with luciferase, serves as a proxy for viable cell number.

The IC50 is the point on the concentration scale where inhibition reaches its midpoint. On to `C#Cc1c(F)ccc2cc(N)cc(-c3nc4c5c(nc(OC[C@]67CCCN6CC(F)(F)C7)nc5c3F)N3C[C@H]5CC[C@H](N5)[C@H]3[C@H](C)O4)c12` [Z739, 4-((5S,5aS,6S,9R)-12-(((R)-2,2-difluorotetrahydro-1H-pyrrolizin-7a(5H)-yl)methoxy)-1-fluoro-5-methyl-5a,6,7,8,9,10-hexahydro-5H-4-oxa-3,10a,11,13,14-pentaaza-6,9-methanonaphtho[1,8-ab]hepten-2-yl)-5-ethynylnaphthalen-2-amine], for which the IC50 in the test with AGS p-ERK (Homo sapiens) came out at 2.63 nM; in test [1] (Homo sapiens, ASPC1, 120 h), 6.16 nM; in test [2] (Homo sapiens, 120 h), 11 nM.

`C#Cc1c(F)ccc2cccc(-c3nc4c5c(nc(OC[C@]67CCCN6CCC7=C)nc5c3F)N3C[C@H]5CC[C@H](N5)[C@H]3C(CF)O4)c12` (stereo partly drawn) [Z746, (5aS,6S,9R)-2-(8-ethynyl-7-fluoronaphthalen-1-yl)-1-fluoro-5-(fluoromethyl)-12-(((R)-1-methylenetetrahydro-1H-pyrrolizin-7a(5H)-yl)methoxy)-5a,6,7,8,9,10-hexahydro-5H-4-oxa-3,10a,11,13,14-pentaaza-6,9-methanonaphtho[1,8-ab]heptene]: the IC50 with AGS p-ERK (Homo sapiens) amounted to 17.1 nM.

For `[2H]C([2H])([2H])[C@@H]1Oc2nc(-c3cc(N)cc(Cl)c3C(F)(F)F)c(F)c3nc(OC[C@]45CCCN4CCC5=C(F)F)nc(c23)N2C[C@H]3CC[C@H](N3)[C@@H]12` [Z1072, 3-chloro-5-((5S,5aS,6S,9R)-12-(((R)-1-(difluoromethylene)tetrahydro-1H-pyrrolizin-7a(5H)-yl)methoxy)-1-fluoro-5-(methyl-d3)-5a,6,7,8,9,10-hexahydro-5H-4-oxo-3,10a,11,13,14-pentaaza-6,9-methanonaphtho[1,8-ab]hepten-2-yl)-4-(trifluoromethyl) aniline], the IC50 in test [1] (Homo sapiens, ASPC1, 120 h) came out at 2.26 nM; in test [2] (Homo sapiens, 120 h), 0.5 nM.

Regarding `C#Cc1c(F)ccc2cccc(-c3cc4nc(OC[C@]56CCCN5CCC6=C)nc5c4c(n3)O[C@@H](C)[C@@H]3[C@@H]4CC[C@H](CN53)N4)c12` [Z958, (5S,5aS,6S,9R)-2-(8-ethynyl-7-fluoronaphthalen-1-yl)-5-methyl-12-(((R)-1-methylenetetrahydro-1H-pyrrolizin-7a(5H)-yl)methoxy)-5a,6,7,8,9,10-hexahydro-5H-4-oxy-3,10a,11,13,14-pentaaza-6,9-methanonaphtho[1,8-ab]heptene], the IC50 came to 29.2 nM in the test on AGS p-ERK (Homo sapiens); 69.5 nM in test [1] (Homo sapiens, ASPC1, 120 h); 45.6 nM in test [2] (Homo sapiens, 120 h).

Take `C=C1CN2CCCC2(COc2nc3c4c(nc(-c5cccc6cccc(Cl)c56)c(F)c4n2)OC(CC)[C@@H]2[C@@H]4CC[C@H](CN32)N4)C1` (stereo partly drawn) [Z596, (5S,5aS,6S,9R)-2-(8-chloronaphthalen-1-yl)-5-ethyl-1-fluoro-12-((2-methylenetetrahydro-1H-pyrrolizin-7a(5H)-yl)methoxy)-5a,6,7,8,9,10-hexahydro-5H-4-oxy-3,10a,11,13,14-pentaaza-6,9-methanonaphtho[1,8-ab]heptene]: the IC50 in test [1] (Homo sapiens, ASPC1, 120 h) was found to be 411 nM; in test [2] (Homo sapiens, 120 h), 268 nM.

Consider `C=C1CCN2CCC[C@]12COc1nc2c3c(nc(-c4cc(N)cc(Cl)c4C(F)(F)F)c(F)c3n1)O[C@@H](C)[C@@H]1[C@@H]3CC[C@H](CN21)N3` [Z963, 3-chloro-5-((5S,5aS,6S,9R)-1-fluoro-5-methyl-12-(((R)-1-methylenetetrahydro-1H-pyrrolizin-7a(5H)-yl)methoxy)-5a,6,7,8,9,10-hexahydro-5H-4-oxa-3,10a,11,13,14-pentaaza-6,9-methanonaphtho[1,8-ab]heptadien-2-yl)-4-(trifluoromethyl) aniline], for which the IC50 in the test with AGS p-ERK stood at 0.39 nM; in test [1], 1.69 nM; in test [2] it was 0.21 nM.

For `C#Cc1cccc2cc(N)cc(-c3nc4c5c(nc(OCC(C)C(O)C(F)F)nc5c3F)N3C[C@H]5CC[C@H](N5)[C@H]3[C@H](C)O4)c12` (stereo partly drawn) [Z742], the IC50 was 52 nM in the test with AGS p-ERK (Homo sapiens); 312 nM in test [1] (Homo sapiens, ASPC1, 120 h); 156 nM in test [2] (Homo sapiens, 120 h).

`C#Cc1c(F)ccc2cccc(-c3nc4c5c(nc(OC[C@]67CCCN6CCC7=C)nc5c3F)N3C[C@H]5CC[C@H](N5)[C@H]3[C@H](C)O4)c12` [Z639, (5S,5aS,6S,9R)-2-(8-ethynyl-7-fluoronaphthalen-1-yl)-1-fluoro-5-methyl-12-(((R)-1-methylenetetrahydro-1H-pyrrolizin-7a(5H)-yl)methoxy)-5a,6,7,8,9,10-hexahydro-5H-4-oxa-3,10a,11,13,14-pentaaza-6,9-methanonaphtho[1,8-ab]heptene]: the half-maximal inhibitory concentration (IC50) in the test on AGS p-ERK was found to be 33.4 nM; in test [1], 93.7 nM; in test [2] it was 113 nM.

For the molecule `C#Cc1cccc2cc(N)c(F)c(-c3nc4c5c(nc(OCC6(CN7CCOCC7)CC6)nc5c3F)N3C[C@H]5CC[C@H](N5)[C@H]3[C@H](C)O4)c12` [Z707, 5-ethynyl-3-fluoro-4-((5S,5aS,6S,9R)-1-fluoro-5-methyl-12-((1-(morpholinemethyl)cyclopropyl)methoxy)-5a,6,7,8,9,10-hexahydro-5H-4-oxa-3,10a,11,13,14-pentaaza-6,9-methanonaphtho[1,8-ab]hepten-2-yl)naphthalen-2-amine], the IC50 turned out to be 0.95 nM with AGS p-ERK, 5.24 nM in test [1] and 7.44 nM in test [2].

Take `C#Cc1c(F)ccc2cccc(-c3nc4c5c(nc(OC[C@]67CCCN6CCC7=C)nc5c3F)N3C[C@H]5CC[C@H](N5)[C@H]3[C@@H](C(F)F)O4)c12` [Z736, (5S,5aS,6S,9R)-5-(difluoromethyl)-2-(8-ethynyl-7-fluoronaphthalen-1-yl)-1-fluoro-12-(((R)-1-methylenetetrahydro-1H-pyrrolizin-7a(5H)-yl)methoxy)-5a,6,7,8,9,10-hexahydro-5H-4-oxa-3,10a,11,13,14-pentaaza-6,9-methanonaphtho[1,8-ab]heptene]: the half-inhibitory concentration (IC50) in test [1] (Homo sapiens, ASPC1, 120 h) worked out at 254 nM; in test [2] (Homo sapiens, 120 h), 389 nM.

Regarding `C#Cc1cccc2cc(N)cc(-c3nc4c5c(nc(OCC67CCCN6CC(=C(F)F)C7)nc5c3F)N3C[C@H]5CC[C@H](N5)[C@H]3[C@H](C)O4)c12` (stereo partly drawn) [Z747], in the test with AGS p-ERK (Homo sapiens), the IC50 turned out to be 0.37 nM.

On to “6-((5S,5aS,6S,9R)-12-(((R)-1-(difluoromethylene)tetrahydro-1H-pyrrolizin-7a(5H)-yl)methoxy)-1-fluoro-5-(methyl-d3)-5a,6,7,8,9,10-hexahydro-5H-4-oxa-3,10a,11,13,14-pentaaza-6,9-methanonaphtho[1,8-ab]hepten-2-yl)-4-methyl-5-(trifluoromethyl)pyridine-2-amine [Z1295]”, for which the IC50 with AGS p-ERK amounted to 13.9 nM.
